Test results published in ChEMBL document CHEMBL1250514, “Fragment-based drug discovery applied to Hsp90. Discovery of two lead series with high ligand efficiency” (J Med Chem, 2010).

Biological target: Heat shock protein HSP90 (Homo sapiens, UniProt P07900+P08238)
Description: Binding affinity to human N-terminal ATPase domain of Hsp90 by isothermal titration calorimetry

Kd	Compound
0.011 µM	CC(C)c1cc(C(=O)N2CCOCC2)c(O)cc1O
0.25 µM	CC(C)(C)c1cc(C(=O)N2CCN(c3ccccn3)CC2)ccc1O
45 µM	CCc1cc(C(=O)N(CC)CC)ccc1O
0.128 µM	CC(C)c1cc(C(=O)N2CCc3ccccc3C2)ccc1O
2.5 µM	CC(C)(C)c1cc(C(=O)N2CCc3ccccc3C2)ccc1O
2 µM	Nc1nc(Cl)cc(-c2ccccc2)n1
2.5 µM	CC(=O)N1CCN(C(=O)c2ccc(O)c(C(C)(C)C)c2)CC1
0.048 µM	COc1ccc(Cl)c(-c2cc(Cl)nc(N)n2)c1
0.068 µM	CC(C)c1cc(C(=O)N2Cc3ccccc3C2)ccc1O
134 µM	CCN(CC)C(=O)c1cc(C(C)(C)C)ccc1O
1130 µM	CCN(CC)C(=O)c1ccc(O)c(Cl)c1
8.6 µM	CCN(CC)C(=O)c1ccc(O)c(C(C)(C)C)c1
0.0063 µM	COc1cc(-c2cc(Cl)nc(N)n2)c(Cl)cc1Cl
7 µM	CCN(CC)C(=O)c1ccc(O)c(C(C)C)c1
0.012 µM	Nc1nc(Cl)cc(-c2ccc(Cl)cc2Cl)n1
0.083 µM	Nc1nc(Cl)cc(-c2ccccc2Cl)n1
51 µM	CCN(CC)C(=O)c1cc(C(C)C)ccc1O
0.036 µM	COc1cccc(Cl)c1-c1cc(Cl)nc(N)n1
0.4 µM	CC(C)c1cc(C(=O)N2CCOCC2)ccc1O
0.068 µM	COc1cccc(OC)c1-c1cc(Cl)nc(N)n1
2.3 µM	CC(C)(C)c1cc(C(=O)N2CCC(O)CC2)ccc1O
0.028 µM	COc1ccc(-c2cc(Cl)nc(N)n2)c(Cl)c1
